Laboratory results from article PMC8733953, “Identifying specific matrix metalloproteinase-2-inhibiting peptides through phage display-based subtractive screening” (Turkish Journal of Biology, 2021).
“Also recorded” adds a separate entry of the source.

Test system: HUVEC
Assay: Wound-healing (cell migration) assay
Assay type: cell-based, human
Details: peptide 100 μM or EDTA 2 mM, 24 h
Protocol: For cell culture study, human umbilical vein endothelial cells (HUVECs; C2519A) were purchased from Lonza, Basel, Switzerland. The cells were cultured in endothelial complete media, which is composed of endothelial basal media EBM-2 (CC-3156, Lonza) supplemented with 1% penicillin (10,000 units/mL)- streptomycin (10,000 units/mL) (Gibco, Cat No 15140122) and endothelial cell growth medium 2 (EGM-2) SingleQuots (CC-4176, Lonza, Switzerland) containing growth factors (insulin-like growth factor, human fibroblast growth factor, human epidermal growth factor, and vascular endothelial growth factor), and supplements (ascorbic acid, heparin, hydrocortisone, and fetal bovine serum). Cell passage was carried out three times per week, considering the cell doubling time (Erdag et al., 2011). Cell migration was investigated using a wound-healing assay. HUVEC cells were detached from the cell culture flask using 0.25% trypsin-EDTA and harvested when cell confluence was approximately 70%–80%. After confirming that cell viability was at least 90%, the cells were suspended in complete medium to a density of 1 × 10^5 cells/mL. […] Wound areas were measured using the Gen5 software, and the relative wound area per time-point was calculated based on the wound at 0 h.

Compound: O=C(O)CN(CCN(CC(=O)O)CC(=O)O)CC(=O)O [EDTA]
- wound area still uncovered (wound opening area) (HUVEC monolayer scratched, relative to wound at 0 h, three independent experiments): 82%
- effect on wound healing (in words) (HUVEC): no significant wound healing was observed; also recorded: twice the inhibition effect
